The text below walks through data of US7763439B2, “Two-photon absorbing dipyrrometheneboron difluoride dyes and their applications” (Arctic Diagnostics Oy, priority 2001, dated 2010).

The nature of data set [1]: Two-photon fluorescence yields of dyes in solution, laser with high two-photon excitation efficiency. Type of data set: physicochemical. Particulars: 100 nM dye in ethanol (R-PE in PBS pH 7.4); 1064 nm Nd:YAG microchip laser; normalised to Rhodamine B (100). The source says:
(§1) FIG. 1 is a plot of two-photon excitations vs. illumination intensity. At low illumination intensities (A) excitation follows a quadratic dependence of the illumination intensity. In order to maximise the two-photon excited fluorescence a dye should be excited close to saturation level (B). At saturation level (C) almost all of the dye molecules become excited. FIG. 2a present alkyl substituted dipyrrometheneboron difluoride dyes described in examples 1-3 as compounds 1-3. FIGS. 2b and 2c present heteroaryl substituted dipyrrometheneboron difluoride dyes described in examples 4-9 as compounds 4-9. X^+ is a cationic counterion. FIG. 2d presents phenyl substituted dipyrrometheneboron difluoride dyes described in examples 10 and 11 as compounds 10 and 11. X^+ is a cationic counterion. FIGS. 2e and 2f present phenylethenyl substituted dipyrromethene-boron difluoride dyes described in examples 12 and 13 as compounds 12 and 13. X^+ is a cationic counterion. FIGS. 2g and 2h present thienyl substituted dipyrrometheneboron difluoride dyes with amino-, arylamino-, maleimide- and isothiocyanate reactive groups described in examples 14-17 as compounds 14-17. X^+ is a cationic counterion. FIG. 3 presents a linker compound 18 that is used to increase solubility of the dyes in aqueous solutions. X^+ is a cationic counter-ion. FIG. 4 is a plot of two-photon fluorescence signal vs. analyte (AFP) concentration in an immunoassay based on two-photon fluorescence as described in example 21. The AFP concentration 0 ng/ml is presented as a concentration of 0.1 ng/ml because of the logarithmic scale used in FIG. 4. FIG. 5 is an optical scheme of the instrument used in two-photon fluorescence measurements. A passively Q-switched Nd:YAG microchip laser 1 is used as an illumination source for two-photon excited fluorescence. The wavelength of the laser is 1064 nm, the pulse duration is 1 ns and the repetition rate is 20 kHz. The naturally diverging laser light beam is directed with a dichroich mirror 2 through an optical scanner unit 3 to the entrance aperture of the objective lens 4. The illumination at the entrance aperture is gaussian filling about 70% of the full aperture. The objective lens then focuses the illumination light into a special cuvette 5 that has a thin optical bottom (thickness 0.2 mm). The average optical output power reaching the sample is 50 mW. The size of the focal volume is about 1 femtoliter. The two-photon excited fluorescence signal in the range 540-700 nm is collected from the full aperture of the objective lens 4 and directed through the dichroich mirror 2 and the band pass filter 6 to the photomultiplier tube 7. In case of particle measurements, both the two-photon excited fluorescence light and the microparticle back-scattered (reflected) laser light are measured. The dichroich mirror 2 and the 2% beam splitting window 8 deflect the back-scattered light to the pinhole 9 making the detection of the scattering signal confocal. The detector for the scattering signal is a near infrared GaAs pin photodiode 10. The particles are continuously tracked by using a three-dimensional beam scanner 3. The xy-scanner is optomechanical and is positioned as close to the entrance aperture of the objective lens as possible. […] Optical pressure caused by the illuminating laser beam traps the particle and guides it through the centre of laser beam focus. The fluorescence signal is measured while the particle is in focus i.e. the back scattering signal exceeds the preset threshold. In addition to xy-scanning a further z-scanning movement is performed by moving the objective slowly in the axial direction. The amplitude of this movement is 150 μm and the movement is not stopped for particle measurement. Despite of slow z-scanning the particle remains in the focus on basis of optical trapping forces.
The two-photon fluorescence yields were measured using experimental apparatus shown schematically in FIG. 5. […]

The nature of data set [2]: Single pulse effect: z-response, 20% to 80% fluorescence intensity distance in dye solution. Type of data set: physicochemical. As to conditions: dye solution between two microscope slides; two-photon excitation.
From the text: as §1
The direct measurement of quenching by single pulse effect is difficult. […]

Regarding R-phycoerythrin [R-PE], in data set [1], the “Normalised two-photon fluorescence yield” value is recorded as 618 a.u. Besides, the “20% to 80% fluorescence intensity distance values” in data set [2] was determined as 21.5 a.u.

“4,4-difluoro-1,3,5,7-tetramethyl-6-carboxyethyl-4-bora-3a,4a-diaza-s-indacene-2-propionic acid succinimidylester [Compound 3]”: the “Normalised two-photon fluorescence yield” value in data set [1] is 18 a.u. For the same compound, the “20% to 80% fluorescence intensity distance values” in data set [2] was found to be 11.5 a.u.

With “Glu-Tau-succinimide derivative of 4,4-difluoro-5-(2-thienyl)-1,3-dimethyl-4-bora-3a,4a-diaza-s-indacene-2-propionic acid [Compound 8]”, in data set [1], the “Normalised two-photon fluorescence yield” value was 219 a.u. The “20% to 80% fluorescence intensity distance values” in data set [2] amounted to 12.6 a.u.

For the compound `O=C(O)CCC1=[N+]2C(=Cc3ccc(-c4cccs4)n3[B-]2(F)F)C=C1` [BODIPY 558/568], the “Normalised two-photon fluorescence yield” value in data set [1] was 101 a.u. In data set [2], the “20% to 80% fluorescence intensity distance values” came to 13.7 a.u.

Take `O=C(O)CCC1=[N+]2C(=Cc3c(-c4ccccc4)cc(-c4ccccc4)n3[B-]2(F)F)C=C1` [BODIPY 530/550]: the “Normalised two-photon fluorescence yield” value in data set [1] stood at 66 a.u. Besides, the “20% to 80% fluorescence intensity distance values” in data set [2] was determined as 12.2 a.u.

As for `CCN(CC)c1ccc2c(-c3ccccc3C(=O)O)c3ccc(=[N+](CC)CC)cc-3oc2c1.[Cl-]` [Rhodamine B], the “Normalised two-photon fluorescence yield” value in data set [1] is on record as 100 a.u. Also, in data set [2], the “20% to 80% fluorescence intensity distance values” is 16.5 a.u.
